Data taken from patent US8268999B2, “Tri-cyclic pyrazolopyridine kinase inhibitors” (Vertex Pharmaceuticals Incorporated, priority 2009, dated 2012).
Where “and” joins values, the source holds several entries; their conditions need not be identical. Equal entries are not always repeated.

Assays:
PI3Kγ = PI3Kγ (Homo sapiens, UniProt P48736); assay: PI3K Inhibition Assay (33P-ATP, PI(4,5)P2 substrate), PI3Kγ; assay type: biochemical; settings: 2 nM final enzyme, 3 μM ATP, 30 μM PI(4,5)P2, 30 min at 25° C.; competitive tight binding Ki fit
Chain of PI3Kγ (P48736 whole entry, species assumed, canonical isoform): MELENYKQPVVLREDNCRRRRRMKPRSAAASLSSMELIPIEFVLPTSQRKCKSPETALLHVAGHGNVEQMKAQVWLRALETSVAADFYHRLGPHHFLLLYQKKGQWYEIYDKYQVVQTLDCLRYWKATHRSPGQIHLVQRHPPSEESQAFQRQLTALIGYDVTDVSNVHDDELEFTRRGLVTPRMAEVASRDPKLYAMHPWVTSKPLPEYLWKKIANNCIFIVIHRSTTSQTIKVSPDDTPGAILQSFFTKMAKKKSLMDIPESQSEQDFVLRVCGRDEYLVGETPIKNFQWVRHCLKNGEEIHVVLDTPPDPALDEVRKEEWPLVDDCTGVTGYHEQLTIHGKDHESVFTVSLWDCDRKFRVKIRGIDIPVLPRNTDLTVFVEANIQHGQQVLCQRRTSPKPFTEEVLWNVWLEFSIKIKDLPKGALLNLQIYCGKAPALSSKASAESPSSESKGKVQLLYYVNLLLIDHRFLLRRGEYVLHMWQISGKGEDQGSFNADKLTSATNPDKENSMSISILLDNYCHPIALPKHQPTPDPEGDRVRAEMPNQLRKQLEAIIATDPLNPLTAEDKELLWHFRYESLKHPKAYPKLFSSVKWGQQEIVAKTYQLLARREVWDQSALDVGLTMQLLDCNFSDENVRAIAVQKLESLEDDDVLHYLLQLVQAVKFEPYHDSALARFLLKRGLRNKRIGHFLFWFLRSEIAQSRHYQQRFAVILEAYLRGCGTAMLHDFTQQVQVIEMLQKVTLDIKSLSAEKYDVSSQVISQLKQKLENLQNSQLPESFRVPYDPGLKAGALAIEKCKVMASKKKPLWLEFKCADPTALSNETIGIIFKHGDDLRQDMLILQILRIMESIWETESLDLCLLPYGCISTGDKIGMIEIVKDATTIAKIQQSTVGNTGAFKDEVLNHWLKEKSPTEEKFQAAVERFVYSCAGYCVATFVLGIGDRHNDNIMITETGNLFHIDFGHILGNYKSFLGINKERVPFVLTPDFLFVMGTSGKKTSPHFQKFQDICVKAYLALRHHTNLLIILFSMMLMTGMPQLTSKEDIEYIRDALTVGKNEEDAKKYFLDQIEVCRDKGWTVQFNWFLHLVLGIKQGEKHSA
Procedure: (§1) Using a Biomek FX from Beckman Coulter, 1.5 μL of each of ten 2.5-fold serial dilutions of a compound of the invention in 100% DMSO was added to an individual well (hereafter, “test well”) in a 96 well polystyrene plate [Corning, Costar Item No. 3697]. One test well also contained 1.5 μL of DMSO with no compound. […] Using a Titertek Multidrop, 50 μL of Reaction Mix [100 mM HEPES pH 7.5, 50 mM NaCl, 10 mM DTT, 0.2 mg/mL BSA, 60 μM phosphatidylinositol(4,5)-bisphosphate diC16 (PI(4,5)P2; Avanti Polar Lipids, Cat. No. 840046P) and PI3K isoform of interest (see Table 3 for isoform concentrations)] was added to each well. To initiate the reaction, 50 μL of ATP Mix [20 mM MgCl2, 6 μM ATP (100 μCi/μmole ^33P-ATP)] was added each well, followed by incubating the wells for 30 min. at 25° C. Final concentrations in each well were 50 mM HEPES 7.5, 10 mM MgCl2, 25 mM NaCl, 5 mM DTT, 0.1 mg/mL BSA, 30 μM PI(4,5)P2, 3 μM ATP, and the PI3K isoform of interest (see Table 3). Final compound concentrations in each well ranged from 10 μM to 1 nM.
(§2) After incubation, the reactions in each well were quenched by addition of 50 μL of stop solution [30% TCA/Water, 10 mM ATP]. […] 50 μL of scintillation fluid was added to each well and the plate read on a Perkin-Elmer TopCount™ NXT liquid scintillation counter to obtain ^33P-counts representing inhibition values. […]

PI3Kα = PI3Kα (Homo sapiens, UniProt P42336); assay: PI3K Inhibition Assay (33P-ATP, PI(4,5)P2 substrate), PI3Kα; assay type: biochemical; settings: 2 nM final enzyme, 3 μM ATP, 30 μM PI(4,5)P2, 30 min at 25° C.; competitive tight binding Ki fit
Chain of PI3Kα (P42336 whole entry, species assumed): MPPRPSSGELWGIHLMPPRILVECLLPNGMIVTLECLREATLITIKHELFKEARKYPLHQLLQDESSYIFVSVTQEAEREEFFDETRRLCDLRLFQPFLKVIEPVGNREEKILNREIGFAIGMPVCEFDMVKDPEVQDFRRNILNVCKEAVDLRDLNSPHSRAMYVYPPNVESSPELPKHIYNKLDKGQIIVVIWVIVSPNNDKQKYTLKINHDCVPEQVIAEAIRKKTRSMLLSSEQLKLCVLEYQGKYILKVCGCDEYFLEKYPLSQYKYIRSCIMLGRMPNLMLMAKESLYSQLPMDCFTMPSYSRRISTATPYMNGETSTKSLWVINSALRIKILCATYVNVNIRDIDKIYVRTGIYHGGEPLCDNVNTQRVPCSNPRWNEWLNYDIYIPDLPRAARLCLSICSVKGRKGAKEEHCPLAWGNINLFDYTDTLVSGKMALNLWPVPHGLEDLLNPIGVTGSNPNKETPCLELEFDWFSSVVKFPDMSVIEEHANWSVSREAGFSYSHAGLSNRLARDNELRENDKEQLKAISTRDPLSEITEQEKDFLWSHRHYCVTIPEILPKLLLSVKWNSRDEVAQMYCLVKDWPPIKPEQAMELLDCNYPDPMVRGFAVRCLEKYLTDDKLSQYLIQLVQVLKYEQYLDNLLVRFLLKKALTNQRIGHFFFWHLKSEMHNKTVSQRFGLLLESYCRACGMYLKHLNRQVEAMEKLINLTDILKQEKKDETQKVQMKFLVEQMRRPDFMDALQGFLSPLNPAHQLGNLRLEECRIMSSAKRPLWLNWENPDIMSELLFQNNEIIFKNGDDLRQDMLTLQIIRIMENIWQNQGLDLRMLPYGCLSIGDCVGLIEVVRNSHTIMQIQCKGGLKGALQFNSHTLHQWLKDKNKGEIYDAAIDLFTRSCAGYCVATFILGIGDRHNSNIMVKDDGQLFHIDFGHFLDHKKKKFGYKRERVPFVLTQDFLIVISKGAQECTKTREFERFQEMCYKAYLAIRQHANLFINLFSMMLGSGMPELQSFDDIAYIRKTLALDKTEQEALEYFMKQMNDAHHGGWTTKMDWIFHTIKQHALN
Chain of PI3Kα (P27986 whole entry partner, species assumed): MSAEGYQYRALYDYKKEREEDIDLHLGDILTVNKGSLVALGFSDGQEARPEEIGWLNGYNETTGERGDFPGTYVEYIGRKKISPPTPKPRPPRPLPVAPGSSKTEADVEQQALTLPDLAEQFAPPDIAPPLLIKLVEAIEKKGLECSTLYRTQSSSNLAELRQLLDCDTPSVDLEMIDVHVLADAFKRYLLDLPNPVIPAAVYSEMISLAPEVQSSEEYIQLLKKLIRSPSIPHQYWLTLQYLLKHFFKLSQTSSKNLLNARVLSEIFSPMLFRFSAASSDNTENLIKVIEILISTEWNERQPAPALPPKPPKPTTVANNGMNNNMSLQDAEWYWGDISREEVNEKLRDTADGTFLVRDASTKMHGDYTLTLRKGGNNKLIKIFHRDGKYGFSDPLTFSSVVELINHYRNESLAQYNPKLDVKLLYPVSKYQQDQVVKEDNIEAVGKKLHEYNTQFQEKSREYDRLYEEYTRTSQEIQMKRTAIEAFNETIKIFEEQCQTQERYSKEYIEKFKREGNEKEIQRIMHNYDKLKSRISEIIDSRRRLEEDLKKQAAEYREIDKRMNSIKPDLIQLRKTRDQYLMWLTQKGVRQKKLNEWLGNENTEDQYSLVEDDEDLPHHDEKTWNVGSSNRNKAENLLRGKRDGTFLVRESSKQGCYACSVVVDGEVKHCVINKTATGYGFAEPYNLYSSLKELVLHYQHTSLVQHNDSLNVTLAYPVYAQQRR
Procedure: as §1, §2

| SMILES | Ki (PI3Kγ) | Ki (PI3Kα) |
| --- | --- | --- |
| CCN(CC)C(=O)c1cccc(Nc2nc3ccc(-c4cncc(OC)c4)cc3s2)n1 [Compound 110] | 3 nM and < 100 nM | – |
| COc1cc(-c2ccc3nc(Nc4cnccn4)sc3n2)cnc1OC [Compound 37] | – | 2 nM and < 100 nM |
